Test results as given in patent US20230212170A1, “INHIBITORS OF KRAS G12C PROTEIN AND USES THEREOF” (SHANGHAI ANTENGENE CORPORATION LIMITED, priority 2020, published 2023).
Like-named read-outs stand apart in the source and are kept apart here.

Tests used:
[1] = system: A549; assay: Tumor cell anti-proliferation assay (CTG assay), A549; assay type: cell-based; conditions: A549, 3-days incubation
Procedure: (§1) Assay 3: Tumor Cell Anti-Proliferation Assay (CTG Assay)
(§2) Tested tumor cell lines (MIA PaCa-2, NCI-H358, and A549) were seeded to the 96-well plate for overnight, then cells were treated with the test compound at 9 serially diluted concentrations in triplicate. After 3-days incubation with the test compound, the CTG assay was performed to evaluate the IC50. The 3 cell lines were tested in the same manner. Cisplatin were used as the positive control.
(§3) Day −1: Cell Plating for Cell Lines
(§4) 1. Adjust the cell concentration to the appropriated number with the medium, and for each well of a 96-well plate, add 90 μl cell suspensions (Cell concentration will be adjusted according to the data base or density optimization assay). 2. Incubate the plates for overnight in humidified incubator at […] with 5% CO2.
(§5) Day 0: T0 Plate Reading and Compound Treatment
(§6) 3. Add 10 μL culture medium to each well of plate A for T0 reading.
(§7) 4. Equilibrate the plate and its content at RT for approximately 30 min.
(§8) 5. Add 50 μL CellTiter-Glo® Reagent to each well for T0 reading.
(§9) 6. Mix contents for 2 minutes on an orbital shaker to facilitate cell lysis.
(§10) 7. Allow the plate to incubate at room temperature for 10 minutes to stabilize the luminescent signal. Note: Uneven luminescent signal within standard plates can be caused by temperature gradients, uneven seeding of cells or edge effects in multiwall plates.
(§11) 8. Place a black BackSeal sticker to the bottom of each plate.
(§12) 9. Record luminescence using an Envision Multi Label Reader.
(§13) 10. Dilute the test compound and the positive control (Cisplatin). Add 10 μL of 10× test compound working solutions into the corresponding wells. Incubate the test plates in the humidified incubator at 37° C. with 5% Co2.
(§14) Day 3: Plate Reading for 3-Day Assay
(§15) 11. Monitor under the microscope to make sure that the cells in control wells are healthy.
(§16) 12. After three days incubation, add 50 μL CellTiter-Glo® Reagent to each well.
(§17) 13. Mix contents for 2 minutes on an orbital shaker to facilitate cell lysis.
(§18) 14. Allow the plate to incubate at room temperature for 10 minutes to stabilize the luminescent signal.
(§19) 15. Note: Uneven luminescent signal within standard plates can be caused by temperature gradients, uneven seeding of cells or edge effects in multiwall plates.
(§20) 16. Place a black BackSeal sticker to the bottom of each plate.
(§21) 17. Record luminescence using an Envision Multi Label Reader.
(§22) In order to calculate IC50, a dose-response curve was fitted using nonlinear regression model with a sigmoidal dose response. The formula of the surviving rate is shown below, and the IC50 was automatically produced by GraphPad Prism 5.0.
(§23) The surviving rate […]=(LumTest compound−LumMedium control)/(LumNone treated-LumMedium control)×100%.
(§24) LumNone treated-LumMedium control is set as 100% o and LumMedium control is set as […]. T0 value will be presented as percentage of LumNone treated.

[2] = system: MIA PaCa-2; assay: Tumor cell anti-proliferation assay (CTG assay), MIA PaCa-2; assay type: cell-based; conditions: MIA PaCa-2, 3-days incubation, CTG, read-out: IC50 MIA PaCa-2
Procedure: as §1, §2, §3, §4, §5, §6, §7, §8, §9, §10, §11, §12, §13, §14, §15, §16, §17, §18, §19, §20, §21, §22, §23, §24

[3] = system: NCI-H358; assay: Tumor cell anti-proliferation assay (CTG assay), NCI-H358; assay type: cell-based; conditions: NCI-H358, 3-days incubation, CTG, read-out: IC50 NCI-H358
Procedure: as §1, §2, §3, §4, §5, §6, §7, §8, §9, §10, §11, §12, §13, §14, §15, §16, §17, §18, §19, §20, §21, §22, §23, §24

[4] = target: T1, KRAS G12C (Homo sapiens, UniProt P01116, G12C); assay: KRAS G12C nucleotide exchange assay (SOS1-mediated, mant-GDP fluorescence); assay type: biochemical; parameters: KRas(1-169) G12C protein; conditions: 15 min pre-incubation
Procedure: Assay 1: KRAS G12C Nucleotide Exchange Assay
1×Loading buffer: 20 mM HEPES, pH 7.5, 50 mM NaCl, 0.5 mM MgCl2, 1 mM DTT, 5 mM EDTA
1×Equilibration buffer: 20 mM HEPES, pH 7.5, 150 mM NaCl, 1 mM MgCl2, 1 mM DTT
1×Assay buffer: 20 mM HEPES, pH 7.5, 150 mM NaCl, 1 mM MgCl2, 0.01% Tween-20, 1 mM DTT
2. Load Mant GDP to KRAS G12C:
a. A mixed solution of 100 µL mant GDP and KRAS G12C was prepared with 1×loading buffer: 60 um KRAS G12C, 600 um […], incubated at room temperature for 60 minutes, and the reaction was carried out in dark conditions.
b. Add 1 uL 1 m MgCl2 (final concentration 10 mm) to stop the reaction, mix the solution upside down in the centrifuge tube, centrifugate for 3-5 seconds, and incubate at room temperature for 30 minutes.
c. At the same time of incubation for 30 minutes, balance nap-5 column with 10 ml ix equipment buffer until no liquid drops.
d. Drop the mixed solution of 100 uL mant GDP and KRAS G12C into the center of nap-5 column. After the sample completely enters nap-5 column, add 400 µL 1× equipment buffer until no liquid drops.
e. Add 500 ul 1× equipment buffer for elution and collect eluant.
f. Determination of KRAS G12C mant GDP with Bradford protein quantitative Kit.
3. Nucleotide Exchange Experiment:
a. Transfer 50 NL DMSO/compound to 384 well plate with echo550.
b. 10 uL enzyme mix was added into 384 pore plate and incubated with DMSO/compound for 15 min.
c. Initial reaction with 10 µL Sos1/GTP mix.
d. Immediately after reaction, read ex360/em440 fluorescence value in kinetic mode with Nivo.
a. Use Graphpad software to process data and draw pictures.
b. K value is obtained in Graphpad software by fitting One phase experimental deck model.
c. Z′=1-3*(SdKmax+SdKmin)/(AveKmax−AveKmin)
d. In % is calculated by the following formula:
Inh%=(Kmax−Ksample)/(Kmax−Kmin)*100
Target sequence in this assay (P01116 1-169 isoform P01116-2 G12C): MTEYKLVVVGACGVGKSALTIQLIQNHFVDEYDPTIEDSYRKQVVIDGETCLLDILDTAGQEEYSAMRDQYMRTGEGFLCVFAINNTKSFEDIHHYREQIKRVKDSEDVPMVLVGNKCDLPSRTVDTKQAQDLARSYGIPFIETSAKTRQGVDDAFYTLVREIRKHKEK

[5] = target: T1, KRAS G12C; assay: KRAS GDP FI assay; assay type: biochemical; conditions: kinetic reading Ex580/Em620 for 120 min
Excerpt: Assay 2: KRAS GDP FI Assay
1. Prepare compound dilution plate.
2. Transfer Inhibitor/DMSO to assay plate by Echo.
3. Prepare 1× assay buffer.
4. Prepare KRAS G12C mix & SOS1 mix & GTP mix & detection reagent mix.
5. Add KRAS G12C mix, SOS1 mix, GTP mix.
6. Add detection reagent mix to assay plate.
Target sequence in this assay (P01116 1-188 isoform P01116-2 G12C): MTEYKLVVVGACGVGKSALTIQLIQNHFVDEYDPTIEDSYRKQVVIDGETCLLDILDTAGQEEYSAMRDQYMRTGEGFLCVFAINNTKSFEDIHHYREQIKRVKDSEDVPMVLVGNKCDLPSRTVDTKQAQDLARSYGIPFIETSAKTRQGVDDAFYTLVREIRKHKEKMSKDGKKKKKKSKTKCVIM

[6] = Pharmacokinetics study in plasma of ICR mice, intravenous or oral administration; assay type: in vivo; conditions: male ICR mice
Procedure: The purpose of this study is to determine the pharmacokinetics parameters in plasma of compounds in ICR mice following intravenous or oral administration.
The formulations were based on sponsor's recommendation and will be prepared by the Testing Facility.
Species and Strain: ICR Mice (Male)
Source: Sino-British SIPPR Lab Animal Ltd, Shanghai
Number of Animals: Ordered: 8; Needed: 6
The test article was be administered via a single IV or PO dosing.
IV group: Post-dose at 5 min, 15 min, 30 min, 1 h, 2 h, 4 h, 8 h and 24 h.
PO group: Post-dose at 15 min, 30 min, 1 h, 2 h, 4 h, 6 h, 8 h and 24 h.
30˜40 μL/sample. Samples were be placed in tubes containing heparin sodium and stored on ice until centrifuged.
The PK blood samples were centrifuged at approximately 6800G for 6 minutes at 2-8° C. and the resulting plasma was transferred to appropriately labeled tubes within 2 hour of blood collection/centrifugation and stored frozen at approximately −70° C.
Method development and biological samples analysis for the test articles (Sodium heparin anticoagulant) were be performed by Testing Facility by means of LC-MS/MS. The analytical results were be confirmed using quality control samples for intra-assay variation. The accuracy of >66.7% of the quality control samples were be between 80-120% of the known value(s).
Pharmacokinetics Analysis
Standard set of parameters including Area Under the Curve (AUC(0-t) and AUC(0-∞)), elimination half-live (T1/2), maximum plasma concentration (Cmax) and time to reach maximum plasma concentration (Tmax) and other parameters were be calculated using Phoenix WinNonlin 7.0 (Pharsight, USA) by the Study Director.

[7] = mouse, 1 mg/kg, IV, 1 mpk, plasma
[8] = mouse, 10 mg/kg, PO, 10 mpk, fasted, plasma

| Structure (SMILES) | IC50 [1] | IC50 [2] | IC50 [3] | IC50 ([1]; Homo sapiens, 72 h) | IC50 [4] | IC50 ([2]; Homo sapiens, MIA PaCa-2, 72 h) | IC50 ([3]; Homo sapiens, NCI-H358, 72 h) | also measured |
| --- | --- | --- | --- | --- | --- | --- | --- | --- |
| N.N.[Cl][Pt][Cl] [Cisplatin, reference compound] | 31100 nM | 14300 nM | 25000 nM | – | – | – | – | – |
| C=CC(=O)N1C[C@H](C)N(c2nc(OC[C@@H]3CCCN3C)nc3c(=O)n(-c4cc(OC)cc5ccccc45)c(C(F)(F)F)nc23)[C@@H](C)C1 (single isomer, unassigned) [Example 35-b] | > 10000 nM | 916 nM | 206 nM | – | – | – | – | – |
| C=CC(=O)N1C[C@H](C)N(c2nc(OC[C@@H]3CCCN3C)nc3c(=O)n(-c4cccc5cccc(F)c45)c(C(F)(F)F)nc23)[C@@H](C)C1 (single isomer, unassigned) [Example 34-b] | > 10000 nM | 679 nM | 82 nM | – | – | – | – | – |
| C=CC(=O)N1CCN(c2nc(OC[C@@H]3CCCN3C)nc3c(=O)n(-c4cccc5cccc(Cl)c45)c(C(F)(F)F)nc23)C[C@@H]1CC#N [Example 31, 2-((S)-1-acryloyl-4-(7-(8-chloronaphthalen-1-yl)-2-(((S)-1-methylpyrrolidin-2-yl)methoxy)-8-oxo-6-(trifluoromethyl)-7,8-dihydropyrimido[5,4-d]pyrimidin-4-yl)piperazin-2-yl)acetonitrile] | – | – | – | > 10000 nM | 446 nM | 124 nM | – | IC50 [5]: 116 nM |
| C=CC(=O)N1C[C@H](C)N(c2nc(OC[C@@H]3CCCN3C)nc3c(=O)n(-c4cccc5cccc(Cl)c45)c(C(F)(F)F)nc23)[C@@H](C)C1 (single isomer, unassigned) [Example 29-b] | – | – | 28.6 nM | > 10000 nM | – | 906 nM | – | IC50 [5]: 127 nM; F ([6]; PO 10 mpk vs IV 1 mpk): 26.74%; AUC [6, 7]: 0.993 µM·h; C0 [6, 7]: 659 nM; Vd [6, 7]: 2.97 L/kg; clearance [6, 7]: 25.7 mL/min/kg; half-life [6, 7]: 1.59 h; AUC [6, 8]: 2.58 µM·h; Cmax [6, 8]: 729 nM; Tmax [6, 8]: 0.42 h; half-life [6, 8]: 2.39 h |

The next lines start with results.

| IC50 [1] | IC50 [2] | IC50 [3] | IC50 ([1]; Homo sapiens, 72 h) | IC50 [4] | IC50 ([2]; Homo sapiens, MIA PaCa-2, 72 h) | IC50 ([3]; Homo sapiens, NCI-H358, 72 h) | Structure (SMILES) | also measured |
| --- | --- | --- | --- | --- | --- | --- | --- | --- |
| – | – | – | > 5000 nM | 370 nM | > 5000 nM | > 5000 nM | C=CC(=O)N1CCN(c2nc(OC[C@@H]3CCCN3C)nc3c(=O)n(-c4cccc5cccc(Cl)c45)c(=O)[nH]c23)C[C@@H]1CC#N [Compound 19, 2-((S)-1-acryloyl-4-(7-(8-chloronaphthalen-1-yl)-2-(((S)-1-methylpyrrolidin-2-yl)methoxy)-6,8-dioxo-5,6,7,8-tetrahydropyrimido[5,4-d]pyrimidin-4-yl)piperazin-2-yl)acetonitrile] | – |
| – | 2650 nM | 1180 nM | > 10000 nM | – | – | – | C=CC(=O)N1C[C@H](C)N(c2nc(OC[C@@H]3CCCN3C)nc3c(=O)n(-c4cc(OC)cc5ccccc45)c(C(F)(F)F)nc23)[C@@H](C)C1 (single isomer, unassigned) [Example 35-a] | – |
| – | – | 202 nM | > 10000 nM | – | 1230 nM | – | C=CC(=O)N1C[C@H](C)N(c2nc(OC[C@@H]3CCCN3C)nc3c(=O)n(-c4cccc5cccc(F)c45)c(C(F)(F)F)nc23)[C@@H](C)C1 (single isomer, unassigned) [Example 34-a] | – |
| – | – | – | > 5000 nM | 690 nM | 642 nM | 1340 nM | Cc1nc2c(N3CCN[C@@H](CC#N)C3)nc(OC[C@@H]3CCCN3C)nc2c(=O)n1-c1cccc2ccccc12 [Compound 2, 2-((S)-4-(6-methyl-2-(((S)-1-methylpyrrolidin-2-yl)methoxy)-7-(naphthalen-1-yl)-8-oxo-7,8-dihydropyrimido[5,4-d]pyrimidin-4-yl)piperazin-2-yl)acetonitrile] | – |
| – | – | – | > 5000 nM | 560 nM | 504 nM | 476 nM | C=CC(=O)N1CCN(c2nc(OC[C@@H]3CCCN3C)nc3c(=O)n(-c4cccc5cccc(Cl)c45)c(C)nc23)C[C@@H]1CC#N [Compound 4, 2-((S)-1-acryloyl-4-(7-(8-chloronaphthalen-1-yl)-6-methyl-2-(((S)-1-methylpyrrolidin-2-yl)methoxy)-8-oxo-7,8-dihydropyrimido[5,4-d]pyrimidin-4-yl)piperazin-2-yl)acetonitrile] | – |
